Assay results reported in paper PMC4949444 (Scientific Reports, 2016).

Experiments:
PPARγ [1] = target: T1, PPARγ (Homo sapiens, UniProt P37231); assay: biochemical; assay type: binding
T1 construct: purchased Life Technologies
T1 sequence (P37231 232-505 limits assumed): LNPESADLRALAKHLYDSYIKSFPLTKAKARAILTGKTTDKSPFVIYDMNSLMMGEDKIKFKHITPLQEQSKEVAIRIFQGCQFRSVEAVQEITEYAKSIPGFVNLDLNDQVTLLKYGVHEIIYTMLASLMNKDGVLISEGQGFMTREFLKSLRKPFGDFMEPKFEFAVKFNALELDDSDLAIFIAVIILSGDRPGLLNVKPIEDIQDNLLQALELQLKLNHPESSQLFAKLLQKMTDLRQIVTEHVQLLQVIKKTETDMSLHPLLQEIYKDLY
Method: The indicated concentrations were tested and results were plotted to obtain the polynomial trend on a logarithmic range. […] HEK293 cells were co-transfected with GAL4-PPARγ and GAL4-luc and incubated with the indicated compound concentrations for 6 hours prior to luciferase activity determination. Results are expressed as the fold induction ± S.D. relative to untreated control. […] All experiments are shown as mean ± S.D. from at least three independent experiments.
To determine PPARγ binding activity the PolarScreen^TM PPAR Competitor Assay kit (Life Technologies, CA, USA) was used following the manufacturer’s instructions. […] To study PPARγ transcriptional activity HEK293 cells were seeded in 24-well plates and transiently co-transfected with the expression vector GAL4-PPARγ and the luciferase reporter vector GAL4-luc using Roti-Fect (Carl Roth, Karlsruhe, Germany) following the manufacturer’s instructions. To correct for transfection efficacy, 100 ng Renilla luciferase (pRL-CMV) was also cotransfected. After stimulation, the luciferase activities were quantified using Dual-Luciferase Assay (Promega, Madison, WI, USA).

PPARγ [2] = assay type: cell-based; details: HEK293, GAL4-PPARγ + GAL4-luc, 6 hours
Method: The indicated concentrations were tested and results were plotted to obtain the polynomial trend on a logarithmic range. IC50 values are indicated within the graph. […] HEK293 cells were co-transfected with GAL4-PPARγ and GAL4-luc and incubated with the indicated compound concentrations for 6 hours prior to luciferase activity determination. Results are expressed as the fold induction ± S.D. relative to untreated control. […] All experiments are shown as mean ± S.D. from at least three independent experiments. Statistics: *^,#,†p < 0.05, **^,##,††p < 0.01 and ***^,###p < 0.001. […] To study PPARγ transcriptional activity HEK293 cells were seeded in 24-well plates and transiently co-transfected with the expression vector GAL4-PPARγ and the luciferase reporter vector GAL4-luc using Roti-Fect (Carl Roth, Karlsruhe, Germany) following the manufacturer’s instructions. To correct for transfection efficacy, 100 ng Renilla luciferase (pRL-CMV) was also cotransfected. After stimulation, the luciferase activities were quantified using Dual-Luciferase Assay (Promega, Madison, WI, USA).

CB1 receptor = target: T2, CB1 receptor (Homo sapiens, UniProt P21554); assay: CB1 receptor binding, [3H]CP55940 competition; details: data not shown; read-out: predicted Ki, CB1 receptor
T2 construct: purchased Perkin-Elmer Life and Analytical Sciences, Boston, MA; host or cells: HEK293 EBNA cells stably expressing the receptor
T2 sequence (P21554 whole entry): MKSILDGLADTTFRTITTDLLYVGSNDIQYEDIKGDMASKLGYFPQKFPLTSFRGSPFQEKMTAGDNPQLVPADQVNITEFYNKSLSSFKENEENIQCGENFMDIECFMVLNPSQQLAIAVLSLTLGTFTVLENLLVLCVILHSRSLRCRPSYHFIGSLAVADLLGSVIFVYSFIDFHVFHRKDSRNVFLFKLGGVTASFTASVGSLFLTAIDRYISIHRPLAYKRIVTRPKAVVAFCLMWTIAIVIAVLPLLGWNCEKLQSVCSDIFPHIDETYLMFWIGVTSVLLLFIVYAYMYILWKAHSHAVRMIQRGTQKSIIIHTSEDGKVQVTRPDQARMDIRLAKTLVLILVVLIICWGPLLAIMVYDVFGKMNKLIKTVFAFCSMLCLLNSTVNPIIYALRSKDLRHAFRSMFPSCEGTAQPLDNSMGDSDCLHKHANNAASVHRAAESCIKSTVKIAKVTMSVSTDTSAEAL
Method: CB1 and CB2 receptor binding affinities were determined by competition studies using [^3H]CP55940 as radioligand and commercial membrane preparations of HEK293 EBNA cells stably expressing the respective receptor type (Perkin-Elmer Life and Analytical Sciences, Boston, MA), following a procedure previously described.

N2a cells = assay: Reactive oxygen species production in N2a cells (CM-H2DCFDA); assay type: cell-based; details: 2 hours
Method: Determination of ROS: N2a cells were seeded at 25x 10^3 cells/ml in 96-well plates and incubated with 0.25 ȝM 5-(and-6 )-chloro meth yl-2ƍ,7ƍ-dichlorodihydrofluorescein diacetate acet yl ester (C M-H 2 DCFDA) for 20 minutes at 37°C. Then, the cells were treated with either VCE-003 or VCE-003.2 for 2 hours. Cells exposed to pro-oxidant tert-Butyl h ydroperoxide (TBHP) were used as positive control. H 2 DCFDA oxidation was detected using an Incuc yteTM Live-Cell Imaging S ystem (Hertfordshire, UK).
Supplementary Figure S1. Non-elect rophilic activity for VCE-003.2. (a) Reactive ox ygen species production. N2a cells were stained with CM-H2DCFDA and treated with VCE-003 or VCE-003.2 for 2 hours. Then, reactive ox ygen sp ecies were measured b y In cu c yt e TM Liv e-Cell Im agin g S ystem. Results are ex pressed as m ean of t otal integrated intensity (ROS positive cells) ± S.D. (b) Effect on Nrf2 transcriptional activity.
VCE-003 treatment vers us Vehicle treated cells.

[3] = test system: QA-induced excitotoxicity in CD1 mice; assay: Intrastriatal QA-induced model of Huntington's disease; assay type: in vivo
Method: Figure 5 Protective action of VCE-003.2 administration in QA-induced excitotoxicity in vivo. (a) CD1 mice were subjected to quinolinic acid (QA) intrastriatal injection and RotaRod performance (fold change) was determined 2 days after lesion in vehicle- and VCE-003.2-treated mice (10 mg/kg). (b) Representative MRI images (Upper panel) and edema volume quantification (lower panel) 5 days after QA injection. Values are expressed as means ± SEM. Sham-Veh and Sham-VCE (n = 7 in each group); QA-Veh (n = 8); QA-VCE (n = 7). **p < 0.01, ***p < 0.001 vs. Vehicle. ^#p < 0.05 vs. QA.
Figure 6 Neuroprotection and attenuation of glial reactivity by VCE-003.2 in QA-induced excitotoxicity in vivo. (a) Representative immunofluorescence images of DARPP32, GFAP, Iba-1 are shown in sham and QA-injected mice treated with vehicle or VCE-003.2 (10 mg/kg). (b) Immunoreactivity of the different markers was quantified with Image J software and referred to the striatal surface analyzed. Values are expressed as means ± SEM. Sham-Veh and Sham-VCE (n = 3); QA-Veh (n = 8); QA-VCE (n = 6). **p < 0.01, ***p < 0.001 vs. QA. Bar size, 200 μm.
Mice were housed under standard conditions (12-h light/dark cycle) in groups with access to food and water ad libitum. All experiments were performed in accordance with European Union guideline and approved by the Animal Research Ethic Committee of Córdoba University (2014PI/017) (3NP model) and by the Animal Research Ethic Committee of Complutense University (CEA-UCM 73/2012) (QA model). Procedures were designed to minimize the number of animals used and their suffering. Excitotoxicity was induced by intrastriatal quinolinic acid (QA) administration (100 nmol in 1 μL PBS solution, unilaterally) as previously described[41] at the following coordinates: +0.6 posterior to bregma, +1.85 medio-lateral and -2.7 dorso-ventral to dura, in 12-week-old CD1 male mice (Harlan Ibérica, Barcelona, Spain). Pharmacological manipulation with VCE-003.2 (10 mg/kg body weight) was performed i.p. daily in 2% Tween 20 and 3% DMSO in saline buffer until sacrifice. Control animals received the corresponding vehicle injections. Motor function was assessed by RotaRod analysis conducted with acceleration from 4 to 40 rpm over a period of 570 s in an LE8200 device (Harvard Apparatus, Barcelona, Spain). […] 3NP-treated animals and their respective non-lesioned controls (injected with PBS) were used for pharmacological studies with VCE-003.2. Treatments consisted of 4 i.p. injections every 24 h with 20 mg/kg VCE-003.2 or vehicle (4% DMSO plus 6,2% Tween 20 in saline buffer), with the first and the last injections 30 min before the first and the last injections of 3NP, respectively. In some experiments, mice received a combination of VCE-003.2 and the PPARγ antagonist T0070907 (5 mg/kg) injected 15 minutes before VCE-003.2. In 3NP-lesioned mice, motor activity, hindlimb clasping, dystonia, and truncal dystonia were evaluated following previously described procedures. All behavioural tests were conducted prior to drug injections to avoid acute effects of the compounds under investigation and all animals were euthanized 12 h after the last injection of 3NP and their brains removed. The right hemispheres were used to dissect the striatum which was frozen in RNAlater (Sigma-Aldrich) and stored at −80 °C for biochemical analyses. […]

With `CCCCCC1=C(NCC)C(=O)C(C/C=C(\C)CCC=C(C)C)=C(O)C1=O` [VCE-003.2] the IC50 (PPARγ [1]) was 1200 nM, the “PPARγ transcriptional activity (transactivation)” value (PPARγ [2]) was “induced PPARγ transactivation in a concentration-dependent manner” and the Ki (CB1 receptor) was greater than 40 µM. For the same molecule, the “induction of reactive oxygen species (ROS)” value (N2a cells) was “none of these bioactivities were induced”, the RotaRod performance ([3]; 2 days after QA injury, 10 mg/kg i.p. daily) was “reversed” and the “edema volume (MRI)” value ([3]; 5 days after QA injury, 10 mg/kg) was “edema volume was not affected”. For the same molecule, the “QA-induced DARPP32 neuronal loss” value ([3]; striatum, 10 mg/kg) was “prevented QA-induced DARRP32 neuronal loss”, the “microglial activation (Iba-1)” value ([3]; striatum, 10 mg/kg) was “prevented QA-induced DARRP32 neuronal loss and microglial activation” and the “reactive astrogliosis (GFAP)” value ([3]; striatum, 10 mg/kg) was “tendency to attenuate reactive astrogliosis”.
